According to ChEMBL document CHEMBL5143555, “Potentiating the intracellular killing of Staphylococcus aureus by dihydroquinazoline analogues as NorA efflux pump inhibitor” (Bioorg Med Chem, 2022):
Values after ≈ are worked out from the molar mass of the structure shown. Active and inactive are the calls of the source. The rule behind the calls is not given here.

Columns and labels:
[1] = target: T1, Quinolone resistance protein NorA (Staphylococcus aureus) (UniProt P0A0J7); assay: Inhibition of NorA in Staphylococcus aureus 1199B assessed as accumulation of norfloxacin at 3.9 ug/ml by measuring fluorescence intensity measured at 5 mins interval for 40 mins by fluorescence spectrophotometry; details: dose 3.9 µg/ml
T1 sequence (whole entry): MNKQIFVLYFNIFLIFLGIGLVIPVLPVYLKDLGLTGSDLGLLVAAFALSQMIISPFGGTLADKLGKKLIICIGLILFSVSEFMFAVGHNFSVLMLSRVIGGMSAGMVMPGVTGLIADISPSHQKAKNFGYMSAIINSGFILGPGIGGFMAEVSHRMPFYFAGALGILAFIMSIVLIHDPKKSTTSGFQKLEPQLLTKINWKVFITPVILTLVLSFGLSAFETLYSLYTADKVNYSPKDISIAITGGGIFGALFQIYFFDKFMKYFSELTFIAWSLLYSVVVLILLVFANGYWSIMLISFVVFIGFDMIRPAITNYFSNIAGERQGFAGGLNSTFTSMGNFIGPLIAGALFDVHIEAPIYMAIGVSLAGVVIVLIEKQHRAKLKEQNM

Staphylococcus aureus [2] = assay: Antibacterial activity against Staphylococcus aureus 1199B measured after 24 hrs by Muller Hinton broth based MTT assay; assay type: functional
Staphylococcus aureus [3] = assay: Antibacterial activity against Staphylococcus aureus 1199 measured after 24 hrs by Muller Hinton broth based MTT assay; assay type: functional
Staphylococcus aureus [4] = assay: Antibacterial activity against Staphylococcus aureus K1758 measured after 24 hrs by Muller Hinton broth based MTT assay; assay type: functional
[5] = target: T1, Quinolone resistance protein NorA (Staphylococcus aureus); assay: Inhibition of NorA in Staphylococcus aureus 1199B assessed as potentiation of norfloxacin-induced antibacterial activity by measuring Norfloxacin MIC at sub MIC
[6] = target: T1, Quinolone resistance protein NorA (Staphylococcus aureus); assay: Inhibition of NorA in Staphylococcus aureus 1199B assessed as potentiation of norfloxacin-induced antibacterial activity by measuring Norfloxacin MIC at sub MIC relative to norfloxacin MIC alone
[7] = target: T1, Quinolone resistance protein NorA (Staphylococcus aureus); assay: Inhibition of NorA in Staphylococcus aureus 1199B assessed as potentiation of norfloxacin-induced antibacterial activity by measuring fractional inhibitory concentration
[8] = target: T1, Quinolone resistance protein NorA (Staphylococcus aureus); assay: Inhibition of NorA in Staphylococcus aureus 1199B assessed as potentiation of ethidium bromide-induced antibacterial activity by measuring ethidium bromide MIC at sub MIC
[9] = target: T1, Quinolone resistance protein NorA (Staphylococcus aureus); assay: Inhibition of NorA in Staphylococcus aureus 1199B assessed as potentiation of ethidium bromide-induced antibacterial activity by measuring ethidium bromide MIC at sub MIC relative to ethidium bromide MIC alone
[10] = target: T1, Quinolone resistance protein NorA (Staphylococcus aureus); assay: Inhibition of NorA in Staphylococcus aureus 1199B assessed as potentiation of ethidium bromide-induced antibacterial activity by measuring fractional inhibitory concentration
[11] = target: T1, Quinolone resistance protein NorA (Staphylococcus aureus); assay: Inhibition of NorA in Staphylococcus aureus 1199B assessed as potentiation of 3.1 ug/mL norfloxacin-induced bactericidal activity by measuring log reduction in bacterial count at 7.8 ug/mL measured after 4 hrs by time-kill kinetics assay; details: dose 7.8 µg/ml
[12] = target: T1, Quinolone resistance protein NorA (Staphylococcus aureus); assay: Inhibition of NorA in Staphylococcus aureus 1199B assessed as potentiation of 3.1 ug/mL ethidium bromide-induced bactericidal activity by measuring log reduction in bacterial count at sub MIC measured within 4 hrs by time-kill kinetics assay
[13] = Cytotoxicity against kidney epithelial cells (unknown origin) assessed as cell viability at 50 ug/mL measured after 24 hrs by alamar blue assay relative to control; assay type: toxicity, cell-based, Fetal kidney cell; details: at 50 µg/mL, read-out: Activity
[14] = target: T1, Quinolone resistance protein NorA (Staphylococcus aureus); assay: Inhibition of NorA in Staphylococcus aureus 1199B assessed as potentiation of norfloxacin-induced morphological changes by measuring appearance of lysed cell at sub MIC by field emission scanning electron microscopy
[15] = target: T1, Quinolone resistance protein NorA (Staphylococcus aureus); assay: Inhibition of NorA in Staphylococcus aureus 1199B assessed as accumulation of ethidium bromide at 3.9 ug/ml by measuring fluorescence intensity measured at 5 mins interval for 40 mins by fluorescence spectrophotometry; details: dose 3.9 µg/ml
Staphylococcus aureus [16] = assay: Down regulation of NorA gene expression in Staphylococcus aureus 1199B at 3.9 ug/ml measured after 2 hrs by qRT-PCR analysis; assay type: functional; details: dose 3.9 µg/ml
Staphylococcus aureus [17] = assay: Down regulation of NorA gene expression in Staphylococcus aureus 1199B at 1.55 ug/ml measured after 2 hrs by qRT-PCR analysis relative to control; assay type: functional; details: dose 1.55 µg/ml
Staphylococcus aureus [18] = assay: Down regulation of NorA gene expression in Staphylococcus aureus 1199B at 1.55 ug/ml measured after 2 hrs in presence of norfloxacin by qRT-PCR analysis relative to norfloxacin; assay type: functional; details: dose 1.55 µg/ml
[19] = target: T1, Quinolone resistance protein NorA (Staphylococcus aureus); assay: Inhibition of NorA in Staphylococcus aureus 1199B infected human THP-1 cells assessed as potentiation of norfloxacin-induced bactericidal activity by measuring reduction in bacterial count at modulatory concentration measured after 24 hrs; assay type: cell-based
[20] = target: T1, Quinolone resistance protein NorA (Staphylococcus aureus); assay: Inhibition of NorA in Staphylococcus aureus 1199B infected human THP-1 cells assessed as potentiation of norfloxacin-induced bactericidal activity by measuring reduction in bacterial count at modulatory concentration measured after 24 hrs relative to control; assay type: cell-based
[21] = target: T1, Quinolone resistance protein NorA (Staphylococcus aureus); assay: Inhibition of NorA in Staphylococcus aureus 1199B infected human THP-1 cells assessed as potentiation of norfloxacin-induced bactericidal activity by measuring reduction in intracellular invasion at modulatory concentration measured after 24 hrs; assay type: cell-based
[22] = target: T1, Quinolone resistance protein NorA (Staphylococcus aureus); assay: Inhibition of NorA in Staphylococcus aureus 1199B infected human THP-1 cells assessed as potentiation of norfloxacin-induced bactericidal activity by measuring reduction in intracellular proliferation at modulatory concentration measured after 24 hrs; assay type: cell-based
[23] = target: T1, Quinolone resistance protein NorA (Staphylococcus aureus); assay: Inhibition of NorA in Staphylococcus aureus 1199B infected human THP-1 cells assessed as potentiation of 3.1 ug/ml norfloxacin-induced bactericidal activity by measuring log reduction in bacterial count at 15.6 ug/ml measured after 24 hrs relative to control; assay type: cell-based; details: dose 15.6 µg/ml
[24] = target: T1, Quinolone resistance protein NorA (Staphylococcus aureus); assay: Inhibition of NorA in Staphylococcus aureus 1199B infected human THP-1 cells assessed as potentiation of norfloxacin-induced bactericidal activity by measuring log reduction in bacterial count measured after 24 hrs relative to vancomycin; assay type: cell-based
[25] = target: T1, Quinolone resistance protein NorA (Staphylococcus aureus); assay: Inhibition of NorA in Staphylococcus aureus 1199B infected human THP-1 cells assessed as potentiation of norfloxacin-induced bactericidal activity by measuring reduction in bacterial count at 1.7 to 3.4 ug/ml measured after 24 hrs relative to control; assay type: cell-based; details: dose 1.7-3.4 µg/ml
[26] = target: T1, Quinolone resistance protein NorA (Staphylococcus aureus); assay: Inhibition of NorA in Staphylococcus aureus 1199B assessed as potentiation of 3.1 ug/mL norfloxacin-induced bactericidal activity by measuring log reduction in bacterial count at 7.8 ug/mL measured after 8 hrs by time-kill kinetics assay; details: dose 7.8 µg/ml
[27] = target: T1, Quinolone resistance protein NorA (Staphylococcus aureus); assay: Inhibition of NorA in Staphylococcus aureus 1199B assessed as potentiation of ethidium bromide-induced bactericidal activity at 7.8 ug/ml measured after 24 hrs by time-kill kinetics assay; details: dose 7.8 µg/ml
[28] = target: T1, Quinolone resistance protein NorA (Staphylococcus aureus); assay: Inhibition of NorA in Staphylococcus aureus 1199B assessed as potentiation of norfloxacin-induced morphological changes by measuring appearance of plicated and with cracked surface at sub MIC by field emission scanning electron microscopy
Staphylococcus aureus [29] = assay: Up regulation of NorA gene expression in Staphylococcus aureus 1199B at 3.9 ug/ml measured after 2 hrs by qRT-PCR analysis relative to control; assay type: functional; details: dose 3.9 µg/ml
Staphylococcus aureus [30] = assay: Up regulation of NorA gene expression in Staphylococcus aureus 1199B at 3.9 ug/ml measured after 2 hrs in presence of norfloxacin by qRT-PCR analysis relative to control; assay type: functional; details: dose 3.9 µg/ml
[31] = target: T1, Quinolone resistance protein NorA (Staphylococcus aureus); assay: Inhibition of NorA in Staphylococcus aureus 1199B assessed as potentiation of 3.1 ug/mL norfloxacin-induced bactericidal activity by measuring log reduction in bacterial count at 7.8 ug/mL measured after 24 hrs by time-kill kinetics assay; details: dose 7.8 µg/ml
[32] = target: T1, Quinolone resistance protein NorA (Staphylococcus aureus); assay: Inhibition of NorA in Staphylococcus aureus 1199B assessed as accumulation of norfloxacin at 3.9 ug/ml measured at 5 mins interval for 40 mins by fluorescence spectrophotometry; details: dose 3.9 µg/ml

Row | SMILES | Flu intensity [1] | MIC (Staphylococcus aureus [2]) | MIC (Staphylococcus aureus [3]) | MIC (Staphylococcus aureus [4]) | MIC [5] | fold change (FC) [6] | fractional inhibitory concentration index (FICI) [7] | MIC [8] | fold change (FC) [9] | fractional inhibitory concentration index (FICI) [10] | viability at 24 h, 50 ug/mL [13] | Flu intensity [15] | Activity [19] | fold change (FC) [20] | inhibition [21] | inhibition [22] | FC [23] | FC [24] | inhibition [27] | further results
1 | Fc1ccccc1C1=NC(c2ccco2)Nc2ccc(Cl)cc21 (stereo not given) | 28700 | 500 µg/mL (≈ 1530 µM) | 125 µg/mL (≈ 383 µM) | 3.9 µg/mL (≈ 11.9 µM) | 3.1 µg/mL | 16 | 0.078 | 3.1 µg/mL | 16 | 0.125 | 95.3% | 248 | 4.68 log10CFU/ml | 4 | Active | Active | 5 | 3 | – | Activity [11]: > 3 log10CFU/ml; Activity [12]: > 3 log10CFU/ml; inhibition [14]: Active; Activity (Staphylococcus aureus [16]): Active; fold change (FC) (Staphylococcus aureus [17]): 8; fold change (FC) (Staphylococcus aureus [18]): 9
2 | CN[C@H](CC(C)C)C(=O)N[C@H]1C(=O)N[C@@H](CC(N)=O)C(=O)N[C@H]2C(=O)N[C@H]3C(=O)N[C@H](C(=O)N[C@H](C(=O)O)c4cc(O)cc(O)c4-c4cc3ccc4O)[C@H](O)c3ccc(c(Cl)c3)Oc3cc2cc(c3O[C@@H]2O[C@H](CO)[C@@H](O)[C@H](O)[C@H]2O[C@H]2C[C@](C)(N)[C@H](O)[C@H](C)O2)Oc2ccc(cc2Cl)[C@H]1O [VANCOMYCIN] | – | 1.7 µg/mL (≈ 1.17 µM) | 0.42 µg/mL (≈ 0.29 µM) | 0.1 µg/mL (≈ 0.069 µM) | – | – | – | – | – | – | – | – | – | – | – | – | – | – | – | fold change (FC) [25]: 2
3 | Brc1ccc(C2=NC(c3ccc(Br)cc3)Nc3ccccc32)cc1 (stereo not given) | 13000 | 500 µg/mL (≈ 1130 µM) | 125 µg/mL (≈ 283 µM) | 15.6 µg/mL (≈ 35.3 µM) | 3.1 µg/mL | 16 | 0.078 | 12.5 µg/mL | 4 | 0.266 | 93.6% | 127 | 4.13 log10CFU/ml | 4 | Active | Active | 5 | 3 | Active | Activity [26]: > 3 log10CFU/ml; inhibition [28]: Active; fold change (FC) (Staphylococcus aureus [29]): 3; fold change (FC) (Staphylococcus aureus [30]): 3
4 | COc1ccc(C2N=C(c3ccccc3)c3ccccc3N2)cc1OC (stereo not given) | – | 500 µg/mL (≈ 1450 µM) | 125 µg/mL (≈ 363 µM) | 250 µg/mL (≈ 726 µM) | 3.1 µg/mL | 16 | 0.078 | 6.2 µg/mL | 8 | 0.141 | 83.7% | 86 | – | – | – | – | – | – | Active | Activity [31]: > 3 log10CFU/ml; inhibition [32]: Active
